Earlier results as cited in publication PMC9796293 (British Journal of Clinical Pharmacology, 2022).

System: monocytes

## O=C(CCCCCCC(=O)Nc1ccc(CN[C@H](C(=O)OC2CCCC2)c2ccccc2)cc1)NO [tefinostat]
Phase I study in cancer patients ref 20
  lowest dose that induced monocyte histone acetylation: 40 mg
Clinical ref 20
  monocytopaenia: not observed
